Publication PMC9775090, “Identification of Bioactive Peptides from Nannochloropsis oculata Using a Combination of Enzymatic Treatment, in Silico Analysis and Chemical Synthesis” (Biomolecules, 2022)
“Also recorded” adds a separate entry of the source. Like-named read-outs stand apart in the source and are kept apart here. Where no end group is shown, it is not given here.

Legend:
ovine recombinant COX-1 = assay: Cyclooxygenase inhibition, cell free assay (COX-1); format: biochemical; conditions: for COX-1 inhibition: assayed at 1 mg/mL, ovine recombinant COX-1
Procedure: (§1) In vitro assays to determine COX inhibition were performed using cell free assays as described previously. The synthesised peptides were incubated independently with ovine recombinant COX-1 (Cayman Chemicals, Hamburg, Germany) or human recombinant COX-2 (Cayman Chemicals, Hamburg, Germany). The assay was carried out in accordance with the manufacturer’s instructions. Resveratrol (Merck, Dublin, Ireland) was used as a positive control.

human recombinant COX-2 = assay: Cyclooxygenase inhibition, cell free assay (COX-2); format: biochemical; conditions: for COX-2 inhibition: assayed at 1 mg/mL, human recombinant COX-2
Procedure: as §1

Escherichia coli DSM 301 = assay: Modified agar well diffusion assay, E. coli; format: cell-based; conditions: 1 mg/mL in 30 µL well, 24 h
Procedure: (§2) The antibacterial activity of synthesised peptides was determined using an overnight culture of the pathogenic bacteria in a modified agar well diffusion assay as described previously. A zone of inhibition around wells containing the peptides indicates antibacterial activity. Escherichia coli DSM 301 and Bacillus cereus DSM 31 were used as indicator pathogen strains. Ampicillin (Merck, Dublin, Ireland) and Cecropin P1 (Merck, Dublin Ireland) were used as positive control antibiotics and antimicrobial peptides. Positive controls or test peptides were incubated (concentration 1 mg/mL) in a well (30 µL capacity) on the agar plate which was seeded with the pathogenic strain at an overnight culture to media ratio of 100 µL: 500 mL (v:v). Plates were left at 4 °C for 4 h and subsequently incubated at the optimum culture temperature and conditions for the pathogen in question. After 24 h, zones of inhibition indicated the presence of antibacterial activity.

[1] = target: T1, Angiotensin-1-converting enzyme (ACE-1) (Homo sapiens, UniProt P12821); assay: ACE-1 inhibition, ACE kit-WST 96-well colorimetric assay; format: biochemical; conditions: for Observed Bioactivity In Vitro (ACE-1): result in words; for % ACE-1 inhibition / inhibition at 1000 µg/mL: synthesised peptides assayed at 1 mg/mL, n = 3; for inhibition at 1000 µg/mL: read-out: % ACE-1 inhibition
T1 construct: purchased Tebu Bio (TebuBio Ltd., Peterborough, UK)
T1 sequence (P12821 30-1306): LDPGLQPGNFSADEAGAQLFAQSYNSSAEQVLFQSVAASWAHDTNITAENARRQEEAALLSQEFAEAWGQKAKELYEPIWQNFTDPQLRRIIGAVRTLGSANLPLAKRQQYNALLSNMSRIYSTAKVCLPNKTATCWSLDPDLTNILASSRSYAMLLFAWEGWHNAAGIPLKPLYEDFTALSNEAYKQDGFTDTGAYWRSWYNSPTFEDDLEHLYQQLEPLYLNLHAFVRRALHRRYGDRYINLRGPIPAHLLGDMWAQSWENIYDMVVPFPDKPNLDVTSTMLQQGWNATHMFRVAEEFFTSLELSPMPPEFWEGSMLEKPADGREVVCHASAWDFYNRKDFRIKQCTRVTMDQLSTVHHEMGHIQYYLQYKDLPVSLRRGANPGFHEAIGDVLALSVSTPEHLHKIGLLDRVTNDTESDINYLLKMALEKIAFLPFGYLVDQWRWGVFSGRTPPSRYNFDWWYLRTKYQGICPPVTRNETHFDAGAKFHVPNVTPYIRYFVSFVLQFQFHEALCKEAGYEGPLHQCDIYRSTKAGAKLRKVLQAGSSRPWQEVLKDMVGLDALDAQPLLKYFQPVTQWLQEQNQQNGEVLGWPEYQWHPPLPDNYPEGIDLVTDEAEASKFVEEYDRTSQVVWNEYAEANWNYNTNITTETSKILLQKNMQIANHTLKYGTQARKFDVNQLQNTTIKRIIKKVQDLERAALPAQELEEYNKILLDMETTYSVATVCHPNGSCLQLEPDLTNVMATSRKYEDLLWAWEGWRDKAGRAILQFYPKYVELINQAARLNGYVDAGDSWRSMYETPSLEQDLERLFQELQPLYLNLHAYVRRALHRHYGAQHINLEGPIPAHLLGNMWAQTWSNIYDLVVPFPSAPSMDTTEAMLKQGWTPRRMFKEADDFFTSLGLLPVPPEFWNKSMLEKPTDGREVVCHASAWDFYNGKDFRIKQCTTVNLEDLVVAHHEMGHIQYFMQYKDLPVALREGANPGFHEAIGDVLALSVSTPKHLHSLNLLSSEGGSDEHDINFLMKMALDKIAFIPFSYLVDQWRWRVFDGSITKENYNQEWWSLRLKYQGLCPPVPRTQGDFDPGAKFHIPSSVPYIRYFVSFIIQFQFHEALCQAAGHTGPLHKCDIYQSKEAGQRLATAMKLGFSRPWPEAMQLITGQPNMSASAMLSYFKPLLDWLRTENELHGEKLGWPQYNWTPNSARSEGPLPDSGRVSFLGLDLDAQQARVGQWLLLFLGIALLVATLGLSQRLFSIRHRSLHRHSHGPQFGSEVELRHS
Procedure: The ACE-I inhibitory activity was determined using a 96 well plate bioassay supplied by Tebu-Bio (TebuBio Ltd., Peterborough, UK) in accordance with the manufacturers’ instructions. Briefly, the enzyme working solution and indicator working solution were prepared according to the manufacturer’s instructions. […] Blanks were included. 20 µL of the substrate buffer was added to each well, followed by 20 µL of the enzyme working solution to experimental wells and blank one wells. The plate was incubated at 37 °C for 1 h. After incubation, 200 µL indicator working solution was added to each well, and the plate was incubated at room temperature for 10 min. […] Absorbance was measured using a plate reader at 450 nm. For IC50 determination, the ACE kit-WST was also used.

Bacillus cereus DSM 31 = assay: Modified agar well diffusion assay, B. cereus; format: cell-based; conditions: 1 mg/mL in 30 µL well, 24 h
Procedure: as §2

ACE-1 = conditions: cited from earlier work
Procedure: Limited studies exist concerning the use of Nannochloropsis sp. as a source of protein, protein hydrolysates or bioactive peptides. Recently, […] et al. […] Enzymatic treatment of biomass is a useful strategy for generation of bioactive peptide containing concentrates. […] These peptides were selected based on their Peptide Ranker scores and amino acid sequences. The ACE-1 and COX-1/COX-2 assays were performed as described previously described using commercially available kits from Cambridge BioSciences (Cambridge BioSciences, Cambridge, UK).

[2] = peptides from pepsin treated Nannochloropsis oculata

With Oc1ccc(/C=C/c2cc(O)cc(O)c2)cc1 [Resveratrol, reference compound] the COX-1 inhibition (ovine recombinant COX-1) was 78.41 (±2.92) % and the COX-2 inhibition (human recombinant COX-2) was 70.41%.

In the case of AGDVGFDPLGF, the “Antibacterial activity against E. coli (zone of inhibition)” value (Escherichia coli DSM 301) is reported as “having antibacterial activity in vitro against E. coli; also recorded: produced a zone of inhibition; also recorded: Antibacterial activity against E. coli at a concentration of 1 mg/mL”, the “Observed Bioactivity In Vitro (ACE-1)” value [1] is reported as “ACE-1 inhibitory” and the “Antibacterial activity against B. cereus (zone of inhibition)” value (Bacillus cereus DSM 31) is reported as “not B. cereus”.

In the case of GMNNLTP [GMNNLTP], the IC50 (ACE-1; [2]) is given as 123 µM.

In the case of “KGGGSGANGGRL [peptide identified in Nannochloropsis sp. xylanase permeate, chemically synthesised; spelt three ways]”, the “% ACE-1 inhibition” value ([1]; listed as KGGGGGANGGRL) is reported as 35.81%.

With “LVGADAHALGVICS [peptide corresponding to a transcriptor initiation protein from Porphyridium sp., chemically synthesised]” the “Observed Bioactivity In Vitro (ACE-1)” value [1] was “ACE-1 inhibition”.

For Leu-Glu-Gln [LEQ], the IC50 (ACE-1; [2]) is listed as 173 µM.

For Leu-Val-Thr-Val-Met, the IC50 (ACE-1; purified peptide from Alcalase hydrolysate) is listed as 18 µM.

Compound NKFPYTTQ [NKFPYTTQ] has an inhibition at 1000 µg/mL [1] of 76.8%.

In the case of “VVGAVGAADLL [peptide corresponding to HEAT repeat-containing protein 1 of Ectocarpus siliculosus, chemically synthesised]”, the “Observed Bioactivity In Vitro (ACE-1)” value [1] is reported as “ACE-1 inhibition” and the “% ACE-1 inhibition” value [1] is reported as 25.73%.

Compound VYNKFPYTTQ [VYNKFPYTTQ] has an inhibition at 1000 µg/mL [1] of 81.7%.

In the case of “YANDLLCMPI [peptide identified in Nannochloropsis sp. xylanase permeate, chemically synthesised]”, the COX-1 inhibition (ovine recombinant COX-1) is reported as 34.5%, the “Observed Bioactivity In Vitro (COX-1)” value (ovine recombinant COX-1; result in words) is reported as “COX-1 and COX-2 inhibition” and the COX-2 inhibition (human recombinant COX-2) is reported as 47.65%. For the same compound, the “Observed Bioactivity In Vitro (COX-2)” value (human recombinant COX-2; result in words) was “COX-1 and COX-2 inhibition”.
